Results from patent US11306078B2, “Piperidine CXCR7 receptor modulators” (IDORSIA PHARMACEUTICALS LTD., priority 2016, dated 2022).

Target: human chemokine receptor CXCR7 (Homo sapiens (Human), UniProt P25106)
Test: Tango CXCR7-bla U2OS beta-arrestin recruitment assay (beta-lactamase reporter, FRET), antagonism of CXCL12/SDF1-α;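 also: compounds preincubated 15 min before CXCL12 addition, then 22 h at 37 °C, FRET emission ratio read with CCF4-AM substrate after 2 h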
Format: cell-based
Conditions: antagonistic effect on CXCR7; Tango CXCR7-bla U2OS cells, CXCL12/SDF1-α at its EC80

Chain of human chemokine receptor CXCR7 (P25106 whole entry): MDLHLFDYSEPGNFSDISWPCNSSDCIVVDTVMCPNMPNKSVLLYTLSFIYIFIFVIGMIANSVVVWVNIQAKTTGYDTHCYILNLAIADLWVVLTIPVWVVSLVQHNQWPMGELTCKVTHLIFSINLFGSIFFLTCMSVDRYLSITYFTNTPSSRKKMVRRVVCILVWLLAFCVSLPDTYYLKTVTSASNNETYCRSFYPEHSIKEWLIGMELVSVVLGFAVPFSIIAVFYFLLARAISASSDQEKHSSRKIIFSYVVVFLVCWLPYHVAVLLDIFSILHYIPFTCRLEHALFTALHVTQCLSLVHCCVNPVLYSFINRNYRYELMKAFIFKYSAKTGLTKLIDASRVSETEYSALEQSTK

| IC50 | Structure (SMILES) |
| --- | --- |
| 26 nM | C=CCN1CC[C@H](NC(=O)c2cc(-c3ccc(F)cc3F)on2)[C@@H](C(=O)NC2(c3ncccn3)CC2)C1 [Example 2.093] |
| 2 nM | O=C(N[C@H]1CCN(C2CC3CC3C2)C[C@@H]1C(=O)NC1(c2ncccn2)CC1)c1cc(-c2ccc(F)cc2F)on1 (some centres unmarked) [Example 2.094] |
| 634 nM | O=C(N[C@H]1CCNC[C@@H]1C(=O)NC1(c2ncccn2)CC1)c1ncc(-c2ccc(F)cc2F)o1 [Example 2.096] |
| 650 nM | O=C(N[C@H]1CCN(C2CCC2)C[C@@H]1C(=O)NC1(c2ncccn2)CC1)c1ncc(-c2ccc(F)cc2F)o1 [Example 2.097] |
| 94 nM | O=C(N[C@H]1CCN(C2CCCC2)C[C@@H]1C(=O)NC1(c2ncccn2)CC1)c1ncc(-c2ccc(F)cc2F)o1 [Example 2.098] |
| 343 nM | CC(C)N1CC[C@H](NC(=O)c2ncc(-c3ccc(F)cc3F)o2)[C@@H](C(=O)NC2(c3ncccn3)CC2)C1 [Example 2.099] |
| 29 nM | O=C(N[C@H]1CCN(CC2CC(F)(F)C2)C[C@@H]1C(=O)NC1(c2ncccn2)CC1)c1cc(-c2ccc(F)cc2F)on1 [Example 2.101] |
| 411 nM | O=C(N[C@H]1CCN(C2CSC2)C[C@@H]1C(=O)NC1(c2ncccn2)CC1)c1cc(-c2ccc(F)cc2F)on1 [Example 2.102] |
| 4 nM | O=C(N[C@H]1CCN(C2CC3(CC3)C2)C[C@@H]1C(=O)NC1(c2ncccn2)CC1)c1cc(-c2ccc(F)cc2F)on1 [Example 2.103] |
| 195 nM | O=C(N[C@H]1CCNC[C@@H]1C(=O)NC1(c2ncccn2)CC1)c1nnc(-c2ccc(F)cc2F)s1 [Example 2.104] |
| 60 nM | O=C(N[C@H]1CCN(C2CCC2)C[C@@H]1C(=O)NC1(c2ncccn2)CC1)c1nnc(-c2ccc(F)cc2F)s1 [Example 2.105] |
| 13 nM | O=C(N[C@H]1CCN(CC2(F)CC2)C[C@@H]1C(=O)NC1(c2ncccn2)CC1)c1nnc(-c2ccc(F)cc2F)s1 [Example 2.106] |
| 114 nM | CCN1CC[C@H](NC(=O)c2nnc(-c3ccc(F)cc3F)s2)[C@@H](C(=O)NC2(c3ncccn3)CC2)C1 [Example 2.107] |
| 69 nM | O=C(N[C@@H]1CCN(C2CCCCC2)C[C@H]1C(=O)NC1(c2ccccn2)CC1)c1noc(-c2ccc(F)cc2F)n1 [Example 3.01] |
| 133 nM | CC1(NC(=O)[C@H]2CN(C3CCCCC3)CC[C@@H]2NC(=O)c2cc(-c3ccc(F)cc3F)on2)CC1 [Example 4.001, (3S,4S)-1-Cyclohexyl-4-{[5-(2,4-difluoro-phenyl)-isoxazole-3-carbonyl]-amino}-piperidine-3-carboxylic Acid (1-methyl-cyclopropyl)-amide] |
| 60 nM | COCC(C)(C)NC(=O)[C@H]1CN(C2CCCCC2)CC[C@@H]1NC(=O)c1cc(-c2ccc(F)cc2F)on1 [Example 4.002] |
| 333 nM | COCCC(C)(C)NC(=O)[C@H]1CN(C2CCCCC2)CC[C@@H]1NC(=O)c1cc(-c2ccc(F)cc2F)on1 [Example 4.003] |
| 319 nM | O=C(N[C@H]1CCN(C2CCCCC2)C[C@@H]1C(=O)NC1(c2ccc(F)cn2)CC1)c1cc(-c2ccc(F)cc2F)on1 [Example 4.004] |
| 86 nM | CC(NC(=O)[C@H]1CN(C2CCCC2)CC[C@@H]1NC(=O)c1cc(-c2ccc(F)cc2F)on1)c1ccon1 (some centres unmarked) [Example 4.04] |
| 149 nM | CC1(NC(=O)[C@H]2CN(C3CCCCC3)CC[C@@H]2NC(=O)c2cc(-c3ccc(F)cc3F)on2)CCC1 [Example 4.006] |
| 52 nM | CC(NC(=O)[C@H]1CN(C2CCCCC2)CC[C@@H]1NC(=O)c1cc(-c2ccc(F)cc2F)on1)c1ncon1 (some centres unmarked) [Example 4.007] |

| IC50 | Structure (SMILES) |
| --- | --- |
| 150 nM | CC(NC(=O)[C@H]1CN(C2CCCCC2)CC[C@@H]1NC(=O)c1cc(-c2ccc(F)cc2F)on1)c1ccc(F)cn1 (some centres unmarked) [Example 4.008] |
| 573 nM | C[C@@H](NC(=O)[C@@H]1CN(C2CCCCC2)CC[C@H]1NC(=O)c1cc(-c2ccc(F)cc2F)on1)C1CCC1 [Example 4.009] |
| 145 nM | O=C(N[C@H]1CCN(C2CCCCC2)C[C@@H]1C(=O)NC(CO)c1ccccn1)c1cc(-c2ccc(F)cc2F)on1 (some centres unmarked) [Example 4.013] |
| 363 nM | C[C@@H](NC(=O)[C@H]1CN(C2CCCCC2)CC[C@@H]1NC(=O)c1cc(-c2ccc(F)cc2F)on1)C1CCC1 [Example 4.014] |
| 783 nM | CC(C)(C)NC(=O)[C@@H]1CN(C2CCCCC2)CC[C@H]1NC(=O)c1cc(-c2ccc(F)cc2F)on1 [Example 4.015] |
| 463 nM | CC1(NC(=O)[C@@H]2CN(C3CCCCC3)CC[C@H]2NC(=O)c2cc(-c3ccc(F)cc3F)on2)CCC1 [Example 4.016] |
| 343 nM | CC1(NC(=O)[C@@H]2CN(C3CCCCC3)CC[C@H]2NC(=O)c2cc(-c3ccc(F)cc3F)on2)CC1 [Example 4.018] |
| 151 nM | CC(C)(C#N)NC(=O)[C@@H]1CN(C2CCCCC2)CC[C@H]1NC(=O)c1cc(-c2ccc(F)cc2F)on1 [Example 4.019] |
| 69 nM | CC(NC(=O)[C@H]1CN(CC2CC2)CC[C@@H]1NC(=O)c1cc(-c2ccc(F)cc2F)on1)c1ccn[nH]1 (some centres unmarked) [Example 4.023] |
| 56 nM | C[C@@H](NC(=O)[C@H]1CN(CC2CC2)CC[C@@H]1NC(=O)c1cc(-c2ccc(F)cc2F)on1)c1cccnc1 [Example 4.024] |
| 15 nM | O=C(N[C@H]1CCN(C2CCCC2)C[C@@H]1C(=O)NC1(c2ccncc2)CC1)c1cc(-c2ccc(F)cc2F)on1 [Example 4.026] |
| 8 nM | O=C(N[C@H]1CCN(CC2CC2)C[C@@H]1C(=O)NC1(c2ccncc2)CC1)c1cc(-c2ccc(F)cc2F)on1 [Example 4.027] |
| 32 nM | O=C(N[C@H]1CCN(C2CCCC2)C[C@@H]1C(=O)NC1(c2ccccn2)CC1)c1cc(-c2ccc(F)cc2F)on1 [Example 4.028] |
| 4 nM | O=C(N[C@H]1CCN(CC2CC2)C[C@@H]1C(=O)NC1(c2ccccn2)CC1)c1cc(-c2ccc(F)cc2F)on1 [Example 4.031] |
| 0.3 nM | CC(C)(NC(=O)[C@H]1CN(CC2CC2)CC[C@@H]1NC(=O)c1cc(-c2ccc(F)cc2F)on1)c1ccccn1 [Example 4.033] |
| 255 nM | Cn1cc(C(C)(C)NC(=O)[C@H]2CN(C3CCCC3)CC[C@@H]2NC(=O)c2cc(-c3ccc(F)cc3F)on2)cn1 [Example 4.034] |
| 56 nM | Cc1nc(C(C)(C)NC(=O)[C@H]2CN(C3CCCC3)CC[C@@H]2NC(=O)c2cc(-c3ccc(F)cc3F)on2)no1 [Example 4.035] |
| 127 nM | O=C(N[C@H]1CCN(C2CCCC2)C[C@@H]1C(=O)NC1(C2CC2)CC1)c1cc(-c2ccc(F)cc2F)on1 [Example 4.036] |
| 280 nM | CC(NC(=O)[C@H]1CN(C2CCCC2)CC[C@@H]1NC(=O)c1cc(-c2ccc(F)cc2F)on1)C1CCCO1 (some centres unmarked) [Example 4.037] |
| 522 nM | CC(NC(=O)[C@H]1CN(C2CCCC2)CC[C@@H]1NC(=O)c1cc(-c2ccc(F)cc2F)on1)c1nc[nH]n1 (some centres unmarked) [Example 4.038] |
| 393 nM | C#CC(C)NC(=O)[C@H]1CN(C2CCCC2)CC[C@@H]1NC(=O)c1cc(-c2ccc(F)cc2F)on1 (some centres unmarked) [Example 4.039] |

| IC50 | Structure (SMILES) |
| --- | --- |
| 96 nM | CC(NC(=O)[C@H]1CN(C2CCCC2)CC[C@@H]1NC(=O)c1cc(-c2ccc(F)cc2F)on1)c1ccn[nH]1 (some centres unmarked) [Example 4.041] |
| 74 nM | C[C@@H](NC(=O)[C@H]1CN(C2CCCC2)CC[C@@H]1NC(=O)c1cc(-c2ccc(F)cc2F)on1)c1cccnc1 [Example 4.042] |
| 158 nM | Cn1cc(C(C)(C)NC(=O)[C@H]2CN(CC3CC3)CC[C@@H]2NC(=O)c2cc(-c3ccc(F)cc3F)on2)cn1 [Example 4.043] |
| 75 nM | Cc1nc(C(C)(C)NC(=O)[C@H]2CN(CC3CC3)CC[C@@H]2NC(=O)c2cc(-c3ccc(F)cc3F)on2)no1 [Example 4.044] |
| 164 nM | O=C(N[C@H]1CCN(CC2CC2)C[C@@H]1C(=O)NC1(C2CC2)CC1)c1cc(-c2ccc(F)cc2F)on1 [Example 4.045] |
| 290 nM | CC(NC(=O)[C@H]1CN(CC2CC2)CC[C@@H]1NC(=O)c1cc(-c2ccc(F)cc2F)on1)C1CCCO1 (some centres unmarked) [Example 4.046] |
| 318 nM | CC(NC(=O)[C@H]1CN(CC2CC2)CC[C@@H]1NC(=O)c1cc(-c2ccc(F)cc2F)on1)c1nc[nH]n1 (some centres unmarked) [Example 4.047] |
| 247 nM | C#CC(C)NC(=O)[C@H]1CN(CC2CC2)CC[C@@H]1NC(=O)c1cc(-c2ccc(F)cc2F)on1 (some centres unmarked) [Example 4.048] |
| 148 nM | CC(NC(=O)[C@H]1CN(CC2CC2)CC[C@@H]1NC(=O)c1cc(-c2ccc(F)cc2F)on1)c1ccon1 (some centres unmarked) [Example 4.049] |
| 356 nM | N#CCN1CC[C@H](NC(=O)c2cc(-c3ccc(F)cc3F)on2)[C@@H](C(=O)NC2(c3ncccn3)CC2)C1 [Example 4.051] |
| 1 nM | O=C(N[C@H]1CCN(CC2CC2)C[C@@H]1C(=O)NC1(c2ccccc2)CC1)c1cc(-c2ccc(F)cc2F)on1 [Example 4.053] |
| 1 nM | O=C(N[C@H]1CCN(CC2CC2)C[C@@H]1C(=O)NC1(c2ncccc2F)CC1)c1cc(-c2ccc(F)cc2F)on1 [Example 4.054] |
| 16 nM | O=C(N[C@H]1CCN(CC2CC2)C[C@@H]1C(=O)NC1(c2ccncn2)CC1)c1cc(-c2ccc(F)cc2F)on1 [Example 4.055] |
| 64 nM | CCOC(=O)C1(NC(=O)[C@H]2CN(CC3CC3)CC[C@@H]2NC(=O)c2cc(-c3ccc(F)cc3F)on2)CC1 [Example 4.056] |
| 13 nM | O=C(N[C@H]1CCN(CC2CC2)C[C@@H]1C(=O)NC1(c2ccccc2)CCC1)c1cc(-c2ccc(F)cc2F)on1 [Example 4.057] |
| 90 nM | O=C(N[C@H]1CCN(CC2CC2)C[C@@H]1C(=O)N(CCF)Cc1ccccc1)c1cc(-c2ccc(F)cc2F)on1 [Example 4.058] |
| 61 nM | COc1cccc(C2(NC(=O)[C@H]3CN(CC4CC4)CC[C@@H]3NC(=O)c3cc(-c4ccc(F)cc4F)on3)CC2)c1 [Example 4.059] |
| 1 nM | O=C(N[C@H]1CCN(CC2CC2)C[C@@H]1C(=O)NC1(c2ccccc2F)CC1)c1cc(-c2ccc(F)cc2F)on1 [Example 4.061] |
| 141 nM | O=C(N[C@H]1CCN(CC2CC2)C[C@@H]1C(=O)NC1(c2ccc(F)cc2)CC1)c1cc(-c2ccc(F)cc2F)on1 [Example 4.062] |
| 142 nM | O=C(N[C@H]1CCN(CC2CC2)C[C@@H]1C(=O)NC1(c2cccc(F)c2)CC1)c1cc(-c2ccc(F)cc2F)on1 [Example 4.063] |
